Assay results taken from the CheMixHub viscosity set.
± gives the uncertainty stated by the source.

Experiment: xn = mol fraction of the nth substance listed

Brc1ccc2[n-]cnc2c1.CCCCCCCCCCCCCC[P+](CCCCCC)(CCCCCC)CCCCCC + COCCOCCOCCOCCOC
viscosity [mPa·s], 100 kPa
Settings | 293.15 K | 298.15 K | 303.15 K | 308.15 K | 313.15 K | 318.15 K | 323.15 K
x1 = 0.362 | 62 ± 1 | – | – | – | – | – | –
x1 = 0.522 | 164 ± 5 | 125 ± 3 | 98 ± 2 | 77 ± 1 | 63 ± 1 | 51 ± 1 | –
x1 = 0.654 | 301 ± 12 | 222 ± 7 | 167 ± 5 | 129 ± 3 | 101 ± 2 | 81 ± 1 | 66 ± 1
x1 = 0.782 | 631 ± 34 | 449 ± 21 | 326 ± 13 | 243 ± 8 | 185 ± 5 | 143 ± 3 | 114 ± 2
x1 = 0.862 | 972 ± 60 | 675 ± 37 | 481 ± 23 | 351 ± 15 | 261 ± 9 | 199 ± 6 | 155 ± 4
x1 = 0.898 | 1190 ± 79 | 813 ± 48 | 572 ± 29 | 413 ± 19 | 304 ± 12 | 230 ± 8 | 177 ± 5

CC1COC(=O)O1 (stereo not given) + CS(C)=O
308.15 K, 101 kPa
Settings | viscosity [mPa·s]
x2 = 0.0506 | 2.025 ± 0.023
x2 = 0.1139 | 1.973 ± 0.023
x2 = 0.2014 | 1.907 ± 0.022
x2 = 0.2976 | 1.842 ± 0.021
x2 = 0.382 | 1.794 ± 0.021
x2 = 0.4759 | 1.746 ± 0.02
x2 = 0.5376 | 1.719 ± 0.02
x2 = 0.6343 | 1.684 ± 0.019
x2 = 0.7176 | 1.659 ± 0.019
x2 = 0.7898 | 1.645 ± 0.019
x2 = 0.8643 | 1.64 ± 0.019
x2 = 0.9376 | 1.639 ± 0.019

CCOCCn1cc[n+](CCC#N)c1.O=S(=O)([N-]S(=O)(=O)C(F)(F)F)C(F)(F)F + CS(C)=O
Settings | viscosity [mPa·s]
303.15 K, 101.33 kPa, x1 = 0.7207 | 40.65 ± 1.2

COc1ccccc1 + CS(C)=O
viscosity [mPa·s], 101.3 kPa
Settings | x2 = 0.1034 | x2 = 0.203 | x2 = 0.3049 | x2 = 0.4058 | x2 = 0.5049 | x2 = 0.6063 | x2 = 0.7044 | x2 = 0.8039 | x2 = 0.9011
298.15 K | 1.049 ± 0.026 | 1.113 ± 0.028 | 1.184 ± 0.029 | 1.259 ± 0.031 | 1.342 ± 0.033 | 1.443 ± 0.035 | 1.544 ± 0.037 | 1.666 ± 0.04 | 1.808 ± 0.043
303.15 K | 0.968 ± 0.024 | 1.024 ± 0.026 | 1.104 ± 0.027 | – | 1.229 ± 0.03 | 1.32 ± 0.032 | 1.408 ± 0.034 | 1.517 ± 0.037 | 1.641 ± 0.039
308.15 K | 0.899 ± 0.023 | 0.949 ± 0.024 | 1.008 ± 0.025 | 1.068 ± 0.027 | 1.133 ± 0.028 | 1.214 ± 0.03 | 1.292 ± 0.032 | 1.388 ± 0.034 | 1.5 ± 0.036

Cc1ccc(S(=O)(=O)O)cc1 + C[N+](C)(C)Cc1ccccc1.[Cl-]
Settings | viscosity [mPa·s]
298 K, 101 kPa, x2 = 0.3 | 12850 ± 1300

CC1COC(=O)O1 (stereo not given) + Cc1ccc(C)cc1
viscosity [mPa·s], 101 kPa
Settings | 298.15 K | 308.15 K
x1 = 0.0227 | 0.6155 ± 0.025 | 0.5443 ± 0.023
x1 = 0.0397 | 0.6246 ± 0.025 | 0.5534 ± 0.023
x1 = 0.0573 | 0.6333 ± 0.025 | 0.5634 ± 0.023
x1 = 0.0816 | – | 0.5779 ± 0.024
x1 = 0.098 | 0.6527 ± 0.026 | 0.5884 ± 0.024
x1 = 0.209 | 0.728 ± 0.029 | 0.6727 ± 0.027
x1 = 0.3029 | 0.8062 ± 0.031 | 0.7639 ± 0.03
x1 = 0.3993 | 0.9317 ± 0.035 | 0.8783 ± 0.033
x1 = 0.5028 | 1.116 ± 0.041 | 1.026 ± 0.038
x1 = 0.5978 | 1.316 ± 0.048 | 1.184 ± 0.043
x1 = 0.7068 | 1.584 ± 0.056 | 1.394 ± 0.05
x1 = 0.8012 | 1.856 ± 0.065 | 1.599 ± 0.057
x1 = 0.8996 | 2.149 ± 0.074 | 1.835 ± 0.064
